Source: PubChem BioAssay AID276 (DTP/NCI, 2004)
Where “and” joins values, the source holds several entries; their conditions need not be identical. Equal entries are not always repeated. Toxic doses and inconclusive results are not listed.

Test system: B6C3F1 mice, Lewis lung carcinoma iv, survival T/C
Test: NCI In Vivo Anticancer Drug Screen. Data for tumor model Lewis Lung Carcinoma (intravenous) in B6C3F1 mice
Conditions: endpoint: median survival time, higher = longer survival
Procedure, shortened: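 Read-out is survival, expressed as the treated-group measurement over the vehicle control-group measurement. Animals bore a transplantable tumor and were given compound.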

[1] = dose: 12.5 mg/kg/injection, schedule: Q01DX009 (ip), vehicle: saline with Tween-80
[2] = dose: 25.0 mg/kg/injection, schedule: Q01DX009 (ip), vehicle: saline with Tween-80
[3] = dose: 12.5 mg/kg/injection, schedule: Q01DX009 (ip), vehicle: saline
[4] = dose: 25.0 mg/kg/injection, schedule: Q01DX009 (ip), vehicle: saline
[5] = dose: 50.0 mg/kg/injection, schedule: Q01DX009 (ip), vehicle: saline
[6] = dose: 100.0 mg/kg/injection, schedule: Q01DX009 (ip), vehicle: saline
[7] = dose: 50.0 mg/kg/injection, schedule: Q01DX009 (ip), vehicle: saline with Tween-80
[8] = dose: 100.0 mg/kg/injection, schedule: Q01DX009 (ip), vehicle: saline with Tween-80

CCCCN(CCCC)C(Cl)=Nc1ccccc1
T/C (dose: 6.25 mg/kg/injection, schedule: Q01DX009 (ip), vehicle: Klucel (hydroxypropylcellulose) (HPC)): 106 % of control | T/C (dose: 12.5 mg/kg/injection, schedule: Q01DX009 (ip), vehicle: Klucel (hydroxypropylcellulose) (HPC)): 107 % of control | T/C (dose: 25.0 mg/kg/injection, schedule: Q01DX009 (ip), vehicle: Klucel (hydroxypropylcellulose) (HPC)): 94 % of control | T/C (dose: 50.0 mg/kg/injection, schedule: Q01DX009 (ip), vehicle: Klucel (hydroxypropylcellulose) (HPC)): 96 % of control | T/C (dose: 100.0 mg/kg/injection, schedule: Q01DX009 (ip), vehicle: Klucel (hydroxypropylcellulose) (HPC)): 98 % of control

C=CC(C)(C)n1cc(C2=C(O)C(=O)C(c3cn(C(C)(C)C=C)c4ccccc34)=C(O)C2=O)c2ccccc21
T/C (dose: 1.25 mg/kg/injection, schedule: Q01DX009 (ip), vehicle: Klucel (hydroxypropylcellulose) (HPC)): 105 % of control | T/C (dose: 2.5 mg/kg/injection, schedule: Q01DX009 (ip), vehicle: Klucel (hydroxypropylcellulose) (HPC)): 110 % of control | T/C (dose: 5.0 mg/kg/injection, schedule: Q01DX009 (ip), vehicle: Klucel (hydroxypropylcellulose) (HPC)): 106 % of control | T/C (dose: 10.0 mg/kg/injection, schedule: Q01DX009 (ip), vehicle: Klucel (hydroxypropylcellulose) (HPC)): 100 % of control | T/C (dose: 20.0 mg/kg/injection, schedule: Q01DX009 (ip), vehicle: Klucel (hydroxypropylcellulose) (HPC)): 114 % of control | T/C (dose: 40.0 mg/kg/injection, schedule: Q01DX009 (ip), vehicle: Klucel (hydroxypropylcellulose) (HPC)): 119 % of control

O=C(O)C(CSC(c1ccccc1)(c1ccccc1)c1ccccc1)N=Cc1cccs1 (centres undefined)
T/C (dose: 12.5 mg/kg/injection, schedule: Q01DX009 (ip), vehicle: suspension in saline): 104 % of control | T/C (dose: 25.0 mg/kg/injection, schedule: Q01DX009 (ip), vehicle: suspension in saline): 100 % of control | T/C (dose: 50.0 mg/kg/injection, schedule: Q01DX009 (ip), vehicle: suspension in saline): 105 % of control

CC1=CC(=Nc2ccc(N(CCCl)CCCl)cc2)C=C(C)C1=O
T/C [1]: 109 % of control | T/C [2]: 116 % of control

COc1cc2cc3cc4cc(OC)c(OC)cc4c(C)[n+]3cc2cc1OC (tested in a mixture with another compound)
T/C [3]: 112 % of control | T/C [4]: 106 % of control | T/C [5]: 117 % of control | T/C [6]: 120 % of control

CCC(C)Nc1ccc(N)cc1 (centres undefined)
T/C (dose: 1.5 mg/kg/injection, schedule: Q01DX009 (ip), vehicle: Klucel (hydroxypropylcellulose) (HPC)): 86 % of control | T/C (dose: 3.0 mg/kg/injection, schedule: Q01DX009 (ip), vehicle: Klucel (hydroxypropylcellulose) (HPC)): 98 % of control | T/C (dose: 6.0 mg/kg/injection, schedule: Q01DX009 (ip), vehicle: Klucel (hydroxypropylcellulose) (HPC)): 94 % of control | T/C (dose: 12.0 mg/kg/injection, schedule: Q01DX009 (ip), vehicle: Klucel (hydroxypropylcellulose) (HPC)): 93 % of control

O=[N+]([O-])c1ccc(N2CCOCC2)c2c1no[n+]2[O-]
T/C (dose: 6.25 mg/kg/injection, schedule: Q01DX009 (ip), vehicle: saline with Tween-80): 118 % of control | T/C [1]: 102 % of control | T/C [2]: 111 % of control | T/C [7]: 111 % of control | T/C [8]: 98 % of control

CCOC(=O)C(N)CSC(=O)NC (centres undefined)
T/C [3]: 98 % of control | T/C [4]: 103 % of control | T/C [5]: 93 % of control | T/C [6]: 101 % of control | T/C (dose: 200.0 mg/kg/injection, schedule: Q01DX009 (ip), vehicle: saline): 109 % of control

CC1(C)CC2(C)OC2C2(C1)N=NC(=Nc1ccccc1)O2 (centres undefined)
T/C [2]: 97 % of control | T/C [7]: 100 % of control | T/C [8]: 106 % of control

O=NN(CCCl)C(=O)NCCO
T/C (dose: 0.78 mg/kg/injection, schedule: Q01DX009 (ip), vehicle: water): 107 % of control | T/C (dose: 3.12 mg/kg/injection, schedule: Q01DX009 (ip), vehicle: water): 184 % of control and 213 % of control and 215 % of control | T/C (dose: 6.25 mg/kg/injection, schedule: Q01DX009 (ip), vehicle: water): 178 % of control and 312 % of control | T/C (dose: 12.5 mg/kg/injection, schedule: Q01DX009 (ip), vehicle: water): 90 % of control

O=P(O)(NCCCl)NCCCl
T/C (dose: 25.0 mg/kg/injection, schedule: Q01DX001 (ip), vehicle: saline with Tween-80): 108 % of control | T/C (dose: 100.0 mg/kg/injection, schedule: Q01DX001 (ip), vehicle: saline with Tween-80): 184 % of control and 226 % of control and 312 % of control | T/C (dose: 200.0 mg/kg/injection, schedule: Q01DX001 (ip), vehicle: saline with Tween-80): 281 % of control
